The text below walks through data of patent US20100004193A1, “COMBINATION THERAPY” (FONDAZIONE PER LA RICERCA BIOMEDICA AVANZATA ONLUS - …, priority 2008, published 2010).

The conditions of data set [1]: concentrations comparable to the concentrations used by the applicant; cited from earlier work.
Data set [2] concerns T-24, HT-1197, HT-1376, MCF-7, A-549 and AsPC-1 cancer cell lines. Put plainly: EC50 for Gem-induced cell death or growth inhibition with G418 at fixed concentrations. It is filed as cell-based. Particulars: G418 at fixed concentrations with no or little effect on their own; Gem 2 to 5 days. The procedure: Cell culture, cell death assays and growth assays—The T-24 and HT-1376 cell lines were purchased from the German Collection of Microorganisms and Cell Cultures and were cultivated in DMEM, high glucose, containing 10% Fetal Bovine Serum (FBS) or Minimum Essential Medium with 10% FBS and non-essential amino acids, respectively. HT-1197 was a gift from Bioxell (Milano) and was cultured like HT-1376. […] HT-1376 and its clones were incubated for 4 days and HT-1197 for 5 days with Gem including one medium change after 2 days. The percentage of dead cells that took up propidium iodide was determined using flow cytometry. […] Staining with Annexin-V-FITC was performed according to the manufacturer's description (Roche). […] Absorbance was read at 570 nm with reference at 650 nm.
G418 enhances Gem-induced cell death or growth inhibition in various cancer cell lines—Since enhancing Gem action would benefit therapy, we tested whether supplementing Gem with G418 could augment the effect of Gem also in other cancer cell lines. To this end, we added G418 at fixed concentrations and determined the EC50 value for Gem-induced cell death. […]
FIG. 6. […] Cell death was measured by propidium iodide dye exclusion except for MCF-7 and AsPC-1 where cell number was measured by MTT-assay. […]

The subject of data set [3] is T-24, HT-1376 and HT-1197 cell lines and clones. Kind of data set: Metabolic labelling of protein synthesis with 35S-methionine/cysteine. The class given is cell-based. As to the method:
Cells were labelled for 1.5 hours in growth medium without methionine and cysteine supplemented with 30 μCi/ml [^35S]-methionine/cysteine. Subsequently, the proteins were precipitated with TCA as described previously (Zhang et al., 2004). The incorporated radioactivity was expressed as counts/μg protein.
FIG. 3. Protein synthesis in the presence of Gem is higher in the resistant clones. […] Medium was removed and replaced for 1.5 h by medium containing 30 μCi/ml ^35S-methionine/cysteine (pulse). […] The reduction in radioactively labelled proteins due to protein degradation during the chase was significant as indicated. (B) The three parental cell lines and HT-1197 and T-24 stably expressing Bcl-2 were incubated with Gem as in (A) in the presence of 40 μM (T-24, HT-1376) or 80 μM z-VAD-fmk (HT-1197) or vehicle (DMSO). Subsequently, the cells were labelled as before. (C) Two sensitive and two resistant clones of each clone set were incubated and labelled as in (A). […] Results are from two independent experiments in duplicate. Error bars depict S.E.M. **P<0.01.
FIG. 5. Protein synthesis inhibitors diminish Gem resistance. (A) Two sensitive and two resistant clones of each clone set were incubated with Gem (T-24: 30 nM, 2 days; HT-1376: 80 nM, 4 days; HT-1197: 120 nM, 5 days). […] Cell death was measured by propidium iodide dye exclusion using flow cytometry. (B) The parental cell lines were incubated with Gem (T-24: 30 nM Gem, 1 day; HT-1376: 80 nM, 3 days; HT-1197: 120 nM, 3 days) in the absence or presence of the indicated protein synthesis inhibitors (250 μg/ml G418 for T-24, 80 μg/ml for HT-1376, 70 μg/ml for HT-1197; 500 ng/ml CHX for all cell lines; 10 nM rapamycin for all cell lines). Subsequently, cells were labeled with 30 μCi/ml ^35S-methionine/cysteine. (C) The parental cell lines were incubated with Gem like for the selection of the Gem-resistant clones and additionally G418 was added at 250 μg/ml (T-24), 80 μg/ml G418 (HT-1376) or 70 μg/ml G418 (HT-1197). Afterward, the remaining cells on the culture plate were stained with crystal violet. A representative assay is shown. All other data are from two independent experiments in duplicate. Error bars represent S.E.M. **P-<0.01, ***p<0.001.

Data set [4] deals with eIF2α, eukaryotic initiation factor 4E binding protein 1, ribosomal protein S6. Kind of data set: Phosphorylation state of translation regulators upon Gem treatment. It is filed as cell-based. As to the method: Quantitative real-time PCR and immunoblotting—We used the same RNA that was isolated for the DNA microarrays and prepared cDNA using Applied Biosystem (ABI) Reverse Transcription Reagents with random hexamer primers. Real-time PCR was performed using the PCR Master Mix (ABI) and ready-made TaqMan expression assays on an ABI Prism 7000. […] For this clone set, we used another “house-keeping gene”, HPRT1, for normalizing the expression values. Expression levels were calculated according to the formula: 1000*2^([…]). Cell lysis for protein extraction was performed on the same day as metabolic labelling. Immunoblotting was done as described previously (Abraham et al., 2005).

Another data set deals with T-24 and HT-1197. Kind of data set: Form of Gem-induced cell death, Bcl-2 overexpression. The class given is cell-based. Particulars: inhibited by Bcl-2 overexpression. As to the method: (§1) Cell culture, cell death assays and growth assays—The T-24 and HT-1376 cell lines were purchased from the German Collection of Microorganisms and Cell Cultures and were cultivated in DMEM, high glucose, containing 10% Fetal Bovine Serum (FBS) or Minimum Essential Medium with 10% FBS and non-essential amino acids, respectively. HT-1197 was a gift from Bioxell (Milano) and was cultured like HT-1376. […] HT-1376 and its clones were incubated for 4 days and HT-1197 for 5 days with Gem including one medium change after 2 days. The percentage of dead cells that took up propidium iodide was determined using flow cytometry. […] Staining with Annexin-V-FITC was performed according to the manufacturer's description (Roche). To assess the cell number by staining with 3-(4,5-Dimethylthiazol-2-yl)-2,5-diphenyltetrazolium bromide (MTT), MTT was added at 500 μg/ml. After 2 hours, precipitate was solubilized by addition of 0.04N HCl/Isopropanol. Absorbance was read at 570 nm with reference at 650 nm.
In HT-1376, apoptosis could not be inhibited by Bcl-2. However, this might be attributed to the relatively low overexpression of Bcl-2 (Supplementary FIG. 1).

The test system of data set [5] is clones of T-24, HT-1376 and HT-1197 bladder cancer cell lines. Kind of data set: Cell death by propidium iodide dye exclusion (flow cytometry) in Gem-sensitive and Gem-resistant clones. It is filed as cell-based. Particulars: 2 sensitive and 2 resistant clones per clone set; Gem 30 nM 2 days (T-24), 80 nM 4 days (HT-1376), 120 nM 5 days (HT-1197); G418 250 or 70 μg/ml, cycloheximide 500 ng/ml, rapamycin 10 nM. The procedure:
as §1
Generation of Gemcitabine-resistant clones and stable cell lines—The T-24 cell line was incubated with 120 nM Gem for 3 days, HT-1376 with 160 nM Gem and HT-1197 with 1.6 μM for 7 days. […] Subsequently, the medium was changed for normal growth medium without Gem and the cells were grown for additional 1 to 3 weeks. […]
FIG. 5. […] Cell death was measured by propidium iodide dye exclusion using flow cytometry. […]

Take `CN[C@@H]1[C@@H](O)[C@@H](O[C@@H]2[C@@H](O)[C@H](O[C@H]3O[C@H]([C@@H](C)O)[C@@H](O)[C@H](O)[C@H]3N)[C@@H](N)C[C@H]2N)OC[C@]1(C)O` [G418]: in data set [1], the “Effects of G418 treatment on mice” value is on record as “without detectable effects on mice”. In data set [2], the “Decrease of the EC50 value for Gem-induced cell death by addition of G418” value is listed as “up to 30 fold”.
`Nc1ccn([C@@H]2O[C@H](CO)[C@@H](O)C2(F)F)c(=O)n1` [Gem, 2′-2′-difluorodeoxycytidine]: in data set [3] (T-24 30 nM 1 day, HT-1376 80 nM 3 days, HT-1197 120 nM 3 days), the “Protein synthesis upon Gem treatment of the parental cell lines” value is recorded as “protein synthesis was reduced”. Also, the “Protein synthesis upon Gem treatment, resistant versus sensitive clones” value in data set [3] (two resistant and two sensitive clones of each clone set) is “decreased protein synthesis significantly less in the resistant clones compared to the sensitive clones”. The “Phosphorylation state upon Gem treatment” value in data set [4] was “neither eIF2α nor eukaryotic initiation factor 4E binding protein 1 nor ribosomal protein S6 changed phosphorylation state”. Moreover, in the data set on T-24 and HT-1197, the “Form of cell death induced by Gem” value was “induced an apoptotic form of cell death”.
In the case of `C[C@@H]1C[C@@H]([C@H](O)CC2CC(=O)NC(=O)C2)C(=O)[C@@H](C)C1` [cycloheximide], the “Protein synthesis in the presence of Gem plus a protein synthesis inhibitor” value in data set [3] (parental cell lines, Gem 30 nM 1 day (T-24), 80 nM 3 days (HT-1376), 120 nM 3 days (HT-1197), G418 250/80/70 μg/ml, CHX 500 ng/ml, rapamycin 10 nM) was “increased protein synthesis compared to Gem alone”. Moreover, the “Gem-induced cell death on concomitant treatment with a protein synthesis inhibitor” value in data set [5] is “inhibited Gem-induced cell death”.
z-VAD-fmk: in data set [3] (40 μM (T-24, HT-1376) or 80 μM (HT-1197) z-VAD-fmk), the “Protein synthesis rates with Gem in the presence of the caspase inhibitor” value is listed as “did not alter the protein synthesis rates with Gem”.
